Reference: patent US20230416245A1, “ADENOSINE ANALOGS FOR THE TREATMENT OF DISEASE” (BIOINTERVENE, INC., priority 2020, published 2023)

Molecular target: human adenosine A3 receptor (Homo sapiens (Human), UniProt P0DMS8)
Test: Adenosine receptor binding assay ([125I]-AB-MECA competition)
Conditions: inhibition of 0.15 nM [125I]-AB-MECA binding, membranes of cells expressing human A3 receptor; read-out: hA3 Ki: Ki
Excerpt: Example 30: Adenosine Receptor Binding Assay
Materials and Reference Compounds: [^125I]-AB-MECA and [^3H]CCPA are both obtained from Amersham Biosciences (Little Chalfont, UK). IB-MECA are obtained from Tocris (Bristol, UK) and N6-cyclopentyl adenosine (CPA) is obtained from Sigma-Alrich (Poole, UK). Cell culture media, G418 and hygromycin are obtained from Invitrogen (Paisley, UK). Fetal calf serum is obtained from Perbio Science (Cheshire, UK). All other reagents are obtained from Fisher Chemicals (Loughborough, UK).
The method followed is that of Yates L, Clark J H, Martin T J, James S, Broadley K J, Kidd E J. Radioligand binding and functional responses of ligands for human recombinant adenosine A3 receptors. Auton Autacoid Pharmacol. 2006; 26(2):191-200. Cells stably transfected with the human adenosine A3 or A1 receptor are grown in Dulbecco's modified Eagles medium with nutrient mixture F12 containing NaHCO3 and Glutamax. Media is supplemented with 10% fetal calf serum, geneticin (G418; 0.67 mg/mL), hygromycin (500 μg/mL) and adenosine deaminase (1 U/mL). Cells are maintained at 37° C. with 5% CO2 in air. Cells are harvested and homogenized in ice-cold Tris buffer [50 mM Tris, 150 mM NaCl, 1 mM ethylenediaminetetraacetic acid (EDTA), pH 7.4] supplemented with the peptidase inhibitors, 4-(2-aminoethyl)benzenesulfonylfluoride (1 mM) and bacitracin (0.1 mg/mL), using a Polytron homogenizer (3×10 s bursts). The homogenate was spun for 10 min (4° C.) at 500 g. The supernatant is retained and the pellet is re-suspended in the buffer, homogenized and spun as above. The combined supernatants are centrifuged for 15 min (4° C.) at 48,000 g. The resultant pellet is re-suspended in the buffer and centrifuged for a second time at 48,000 g. The membrane pellet is then suspended in Tris buffer containing no peptidase inhibitors or adenosine deaminase and stored at −80° C. at a protein concentration of 1 mg/mL.
Binding Assays: Radioligand-binding assays were performed using the adenosine A3 receptor agonist [^125I]-AB-MECA and the A1 receptor agonist [^3H]CCPA. Binding assays were conducted in a total volume of 100 μL containing a 50 mM Tris, pH 7.4 buffer with or without 10 mM MgCl2, 20 μg membranes and either 0.15 nM [^125I]-AB-MECA (for the A3 receptor) or 1 nM [^3H]CCPA (for the A1 receptor). Assays were conducted at room temperature for 60 min (A1 receptor) or 120 min (A3 receptor) and terminated by the addition of 2 ml of ice-cold wash buffer (50 mM Tris, pH 7.4 with or without 10 mM MgCl2) and rapid filtration over 0.03% polyethylenimine-treated Whatman GF/C filters using a Brandel cell harvester (Semat International Ltd., St Albans, UK). Filters were then washed three times with 2 ml of ice-cold buffer. The filter-bound radioactivity were counted using a Compugamma counter (LKB Wallac, Turku, Finland). Competition experiments were performed to investigate the ability of reference compounds and embodiments of the invention to inhibit [^125I]-AB-MECA binding. Non-specific binding were determined using the respective compound at its highest concentration.
Data Analysis: The Kd and Bmax values for binding data were calculated based upon the molar amounts of bound and free [^125I]-AB-MECA. […] IC50 and Ki values and Hill slopes for inhibition of the radioligand binding by the compounds of the invention were calculated from the ligand competition curves using the Excel spreadsheet and the Kd value calculated for either [^125I]-AB-MECA or [^3H]CCPA. The results were expressed as a percent of control specific binding and as a percent inhibition of control specific binding obtained in the presence of the compounds of the invention. The IC50 values (concentration causing a half-maximal inhibition of control specific binding) and Hill coefficients (nH) were determined by non-linear regression analysis of the competition curves generated with mean replicate values using Hill equation curve fitting: […]

Chain of human adenosine A3 receptor (P0DMS8 whole entry): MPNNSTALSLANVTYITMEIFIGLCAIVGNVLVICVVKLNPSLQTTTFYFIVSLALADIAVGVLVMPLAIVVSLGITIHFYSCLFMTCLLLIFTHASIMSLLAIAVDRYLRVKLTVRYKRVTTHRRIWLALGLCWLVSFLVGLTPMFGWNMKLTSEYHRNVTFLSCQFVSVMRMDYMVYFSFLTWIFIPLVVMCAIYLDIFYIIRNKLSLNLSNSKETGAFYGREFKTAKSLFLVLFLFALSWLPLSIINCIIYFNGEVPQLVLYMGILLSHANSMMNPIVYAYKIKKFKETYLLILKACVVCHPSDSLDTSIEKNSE

Ki | Compound
1.62 nM | CNC(=O)[C@@]12C[C@@H]1[C@@H](n1cnc3c(NCC(C)C)cc(Cl)nc31)[C@H](O)[C@@H]2O [Compound 83, (1S,2R,3S,4R,5S)-4-(5-chloro-7-(isobutylamino)-3H-imidazo[4,5-b]pyridin-3-yl)-2,3-dihydroxy-N-methylbicyclo[3.1.0]hexane-1-carboxamide]
2.42 nM | CNC(=O)[C@@]12C[C@@H]1[C@@H](n1cnc3c(N)cc(Cl)nc31)[C@H](O)[C@@H]2O [Compound 90, (1S,2R,3S,4R,5S)-4-(7-amino-5-chloro-3H-imidazo[4,5-b]pyridin-3-yl)-2,3-dihydroxy-N-methylbicyclo[3.1.0]hexane-1-carboxamide]
5.1 nM | CNC(=O)[C@@]12C[C@@H]1[C@@H](n1cnc3c(NCCO)cc(Cl)nc31)[C@H](O)[C@@H]2O [Compound 91, (1S,2R,3S,4R,5S)-4-(5-chloro-7-((2-hydroxyethyl)amino)-3H-imidazo[4,5-b]pyridin-3-yl)-2,3-dihydroxy-N-methylbicyclo[3.1.0]hexane-1-carboxamide]
26.8 nM | Nc1c(OCc2cccc(Cl)c2)c(Cl)nc2c1ncn2[C@H]1[C@H](O)[C@H](O)[C@@H]2C[C@@H]21 [Compound 92, (1R,2R,3S,4R,5S)-4-(7-amino-5-chloro-6-((3-chlorobenzyl)oxy)-3H-imidazo[4,5-b]pyridin-3-yl)bicyclo[3.1.0]hexane-2,3-diol]
